The source of these data is paper PMC2917805 (Journal of medicinal chemistry, 2010).

In data set [1] the test system is quinone reductase 1 (QR1). Nature of the data set: QR activity in cell culture. The data set is classed as cell-based, murine. The following applies: Hepa 1c1c7 cells.
The next data set relates to iNOS protein expression. Nature of the data set: Western blot of iNOS expression in LPS-stimulated RAW 264.7 cells. The data set is classed as cell-based. The following applies: 34 μM; for effect on iNOS protein expression: LPS-stimulated RAW 264.7 cells; for relative iNOS protein expression: relative to LPS-treated control, LPS 1 μg/mL, 18 h. A general note: Immunoblotting shows a protein as a band on a membrane.

Data set [2] can be described thus: Stability in RPMI 1640 cell culture medium. The data set is classed as physicochemical.
Data set [3] is described as follows: DPPH free-radical scavenging.
The subject of data set [4] is HL-60 human acute leukemia cells. Nature of the data set: Cell cycle analysis, subG1 accumulation. The data set is classed as cell-based.
Setting [5] is: cell culture medium, 37 °C, 24 h.

As to `O=S(=O)([O-])Oc1ccc(/C=C/c2cc(O)cc(OS(=O)(=O)[O-])c2)cc1.[K+].[K+]` [compound 3, Resveratrol Dipotassium 3,4′-Sulfate], the “QR1 CD (concentration to double the expression of QR1)” value (from here on “QR1 CD”) in data set [1] was greater than 10.1 µM.

In general, fraction remaining refers to the share of the starting amount still present when the sample was taken. Higher therefore signals greater stability. Turning to `O=S(=O)([O-])Oc1ccc(/C=C/c2cc(O)cc(O)c2)cc1.[K+]` [compound 7, Resveratrol Potassium 4′-Sulfate], in data set [1], the “QR1 CD” value is greater than 6.9 µM. In the data set on iNOS protein expression, the “effect on iNOS protein expression” value is recorded as “moderately suppressed the expression of iNOS” and the “relative iNOS protein expression” value was 0.67. For the same molecule, in data set [2] (buffer), the amount remaining at 0 h is 100 ± 2.2%, the share remaining at 12 h is 95.1 ± 3% and the amount remaining at 24 h amounted to 98.8 ± 3.1%. In addition, the “stability” value in data set [2] (setting [5]) was “stable for 24 h”.

As to `O=S(=O)([O-])Oc1cc(/C=C/c2ccc(O)cc2)cc(OS(=O)(=O)[O-])c1.[K+].[K+]` [compound 4, Resveratrol Tripotassium 3,5-Sulfate], the “QR1 CD” value in data set [1] was greater than 10.1 µM.

For `O=S(=O)([O-])Oc1cc(O)cc(/C=C/c2ccc(O)cc2)c1.[K+]` [compound 5, Resveratrol Potassium 3-Sulfate], in the data set with iNOS protein expression, the “effect on iNOS protein expression” value is given as “moderately suppressed the expression of iNOS” and the “relative iNOS protein expression” value was determined as 0.54.

Regarding `O=S(=O)([O-])Oc1ccc(/C=C/c2cc(OS(=O)(=O)[O-])cc(OS(=O)(=O)[O-])c2)cc1.[K+].[K+].[K+]` [compound 2, Resveratrol Tripotassium 3,5,4′-Sulfate], the “QR1 CD” value in data set [1] was greater than 11.7 µM. Besides, the “DPPH free radical scavenging” value in data set [3] is “inactive”.

As for `Oc1ccc(/C=C/c2cc(O)cc(O)c2)cc1` [Resveratrol, 3,5,4′-trihydroxystilbene, reference compound], in data set [4], the “accumulation of HL-60 cells in subG1” value is given as “active”. The “effect on iNOS protein expression” value in the data set on iNOS protein expression is on record as “moderately suppressed the expression of iNOS”. Further, in data set [2] (RPMI 1640 cell culture medium), the fraction remaining at 0 h stood at 100 ± 0.3% and the share remaining at 24 h was 46.8 ± 8.7%. Moreover, in data set [2] (setting [5]), the “degradation during 24 h” value is listed as ~ 50%.
